Test results as given in a melting point compilation (Tetko et al.; mined from patent text by program, amines drawn as free bases though some values may be those of a salt).

`CC(C)c1ccc(-c2nccc(-c3ccc(C(=O)O)cc3)n2)cc1` gave a melting point of 262 to 264 °C. With `CCOC(=O)CC(=O)N=C(SC)N(C)N=Cc1ccccc1` the melting point was 74 to 75 °C. For `COc1c(C#N)c(C#N)c(OC)c2ccccc12`, the melting point was 190 °C. With `CCC1(CC)Nc2ccccc2-c2c([N+](=O)[O-])cnn21` the melting point was 132 to 134 °C. `COc1nc(C)nc(OC)c1N1CCCn2c1nc1c(Cl)ccc(C(O)(C3CC3)C3CC3)c12` gave a melting point of 204 to 205 °C. `CC(C)(C)OC(=O)Nc1ccc(C2=CCN(C(=O)OC(C)(C)C)CC2)cc1[N+](=O)[O-]` showed a melting point of 85 to 87 °C. For `CCCC(=O)NC1=NN(c2cccc(Cl)c2)CC1`, the melting point was 168 to 169 °C. Molecule `O=C(O)Cc1cc(Br)c(-c2ccc(Cl)cc2)s1` has a melting point of 136 to 137 °C. `N#CC1(CCNC(=O)C(Cl)Cl)CCCCC1` gave a melting point of 109 to 114 °C. Molecule `COC(=O)CCC(=O)c1ccc(CCCCNC(C)=O)cc1` has a melting point of 94 to 95 °C. `NS(=O)(=O)c1nc2ccc(O)cc2s1` showed a melting point of 209 °C. In the case of `COC(=O)C1(C)CCc2c(C)c(O)c(C)c(C)c2O1` (stereo unspecified), the melting point was 132 to 135 °C. Work on `CC(O)(c1nc2ccc(I)cc2c(=O)[nH]1)C(F)(F)F` (stereo unspecified) yielded a melting point of 205 to 207 °C. `O=CNc1ccccc1CCc1ccccn1` gave a melting point of 78 to 81 °C. With `O=C(NCCCC(F)(F)F)Oc1ccc([N+](=O)[O-])cc1` the melting point was 118 to 120 °C. For `CN(C)CCc1cn(C)c2c(F)ccc(OCc3ccccc3)c12`, the melting point was 60 to 62 °C. Molecule `CCN(CCCN1C(=O)c2cc(OC)ccc2C(C)(C)C1=O)CCCN1C(=O)c2cc(OC)ccc2C(C)(C)C1=O` has a melting point of 141 to 143 °C. Molecule `CC(=O)c1cc([N+](=O)[O-])c(F)cc1Cl` has a melting point of 66 to 68 °C. For `C=CC(=O)Oc1ccc(N2C(=O)C(=C(C)C)/C(=C(\c3cc(C)oc3C)C(C)C)C2=O)cc1`, the melting point was 50 to 52 °C. Molecule `CCOP(=O)(OCC)C(O[Si](C)(C)C)c1ccc(OC)c(C)c1` (stereo unspecified) has a melting point of 37 °C. In the case of `O=c1[nH]c2sc(Br)c(Br)c2[nH]c1=O`, the melting point was over 300 °C. `Cc1c(Cc2ccc(C(C)C)cc2)c2c(c(C)c1NC(=O)CC(C)(C)C)C(C)CO2` (stereo unspecified) gave a melting point of 185 to 186 °C. `c1ccc(-c2nc(SCCOCCSc3nc(-c4ccccc4)c(-c4ccccc4)[nH]3)[nH]c2-c2ccccc2)cc1` gave a melting point of 232 to 234 °C. Molecule `C=CCc1cc2c(c(CC=C)c1O)N(CC=C)C(=O)CO2` has a melting point of 71 to 73 °C. For `CCCOC(=O)c1cn(CC)c2nc(N3CCNCC3)ncc2c1=O`, the melting point was 152 °C. `COC(=O)CC[C@H](NC(=O)OCc1ccccc1)C(=O)O` showed a melting point of 61 to 63 °C. Work on `CC(O)C#Cc1cc(C(C)Nc2nc(N)nc(C(C)(C)F)n2)ccc1F` (stereo unspecified) yielded a melting point of 119 to 122 °C. For `CC(=NNC(=O)C1CCC1)c1ccncc1`, the melting point was 139 °C. In the case of `O=c1c2ccccc2nc(CCl)n1-c1ccccc1`, the melting point was 152 to 153 °C. `O=[N+]([O-])C=C1NCCN1c1ccc(Cl)nc1` showed a melting point of 201 °C. Work on `O=S(=O)(NC(c1ccc(F)cc1)c1ccnn1-c1ccc(F)cc1)c1ccc(Cl)s1` (stereo unspecified) yielded a melting point of 159 to 160 °C. In the case of `CC(C)(C)OC(=O)N1CCC(Cc2ccc(Cl)cc2)(C(=O)O)CC1`, the melting point was 179 to 180 °C. `N#CCCc1c(SC(F)(F)F)c(C#N)c(Cl)n1-c1c(Cl)cc(C(F)(F)F)cc1Cl` showed a melting point of 150 °C. For `Cc1noc(C)c1C(=O)Nc1ccc(-n2nccc2C)cc1`, the melting point was 151 to 152 °C. With `CC(=O)Nc1nc(=O)n(C(=O)c2ccc(C)cc2)cc1F` the melting point was 147 to 148 °C. In the case of `CC(C)(C)OC(=O)N1CCc2onc(O)c2C1`, the melting point was 151 to 152 °C. Molecule `CO/C=C(/C(=O)OC)c1ccccc1Br` has a melting point of 68 to 69 °C. Molecule `Cc1c(C)c2ccc(OCc3ccccc3)cc2oc1=O` has a melting point of 131 to 135 °C. In the case of `CS(=O)(=O)OCC(CC1CCCCC1)c1ccc(Cl)cc1Cl` (stereo unspecified), the melting point was 105 °C. In the case of `CCOC(=O)c1cc(=O)c2cccc(N3CCN(C)CC3)c2o1`, the melting point was 124 to 125 °C. `CCSc1nc2c(C)sc(C(=O)O)c2n1Cc1ccc(-c2ccccc2-c2nnnn2C(c2ccccc2)(c2ccccc2)c2ccccc2)cc1` showed a melting point of 138 to 140 °C.
